Test: refractive index (other wavelength) (dimensionless); xn = mol fraction of the nth substance listed
Details: 101 kPa, Liquid, Standard Abbe refractometry

CC(C)OC(C)C [diisopropyl ether] + CC(C)O
refractive index
Details	Wavelength=404.7 nm	Wavelength=435.8 nm	Wavelength=486.1 nm	Wavelength=546.1 nm	Wavelength=587.6 nm	Wavelength=589.3 nm	Wavelength=632.8 nm	Wavelength=644 nm	Wavelength=706.5 nm
308.15 K, x1 = 0.0277	1.38135	1.37835	1.37495	1.37214	1.37065	1.37059	1.36929	1.36899	1.36755
308.15 K, x1 = 0.0507	1.3813	1.3783	1.37488	1.37207	1.37059	1.37053	1.36924	1.36894	1.36748
308.15 K, x1 = 0.051	1.38124	1.37824	1.37483	1.37202	1.37053	1.37047	1.36917	1.36887	1.36742
308.15 K, x1 = 0.0717	1.38092	1.37792	1.37451	1.3717	1.37072	1.37014	1.36886	1.36856	1.36711
308.15 K, x1 = 0.1528	1.38023	1.37724	1.37384	1.371	1.36953	1.36947	1.3682	1.3679	1.36646
308.15 K, x1 = 0.1553	1.38023	1.37724	1.37384	1.371	1.36953	1.36947	1.3682	1.3679	1.36646
308.15 K, x1 = 0.1938	1.37994	1.37695	1.37356	1.37072	1.36925	1.36919	1.36792	1.36761	1.36617
308.15 K, x1 = 0.2029	1.3793	1.37665	1.37311	1.37028	1.3688	1.36875	1.36748	1.36718	1.36573
308.15 K, x1 = 0.245	1.37901	1.37603	1.37266	1.36984	1.36837	1.36832	1.36706	1.36676	1.36532
308.15 K, x1 = 0.297	1.37832	1.37533	1.37193	1.36911	1.36764	1.36759	1.36631	1.36601	1.36457
308.15 K, x1 = 0.2973	1.37852	1.37554	1.37215	1.36932	1.36785	1.3678	1.36653	1.36623	1.3648
308.15 K, x1 = 0.3068	1.37823	1.37525	1.3718	1.36857	1.36754	1.36751	1.36624	1.36594	1.36451
308.15 K, x1 = 0.398	1.37692	1.37394	1.37056	1.36775	1.36628	1.36623	1.36496	1.36466	1.36323
308.15 K, x1 = 0.4609	1.37625	1.37325	1.36987	1.36707	1.3656	1.36554	1.36427	1.36397	1.36254
308.15 K, x1 = 0.5434	1.37535	1.37238	1.36896	1.3662	1.36473	1.36467	1.36338	1.36309	1.36168
308.15 K, x1 = 0.6032	1.37466	1.3717	1.3683	1.3655	1.36404	1.36398	1.36271	1.36241	1.361
308.15 K, x1 = 0.6371	1.37427	1.37131	1.36792	1.36515	1.36369	1.36363	1.36235	1.36205	1.36064
308.15 K, x1 = 0.701	1.37352	1.37059	1.36722	1.36441	1.36297	1.36292	1.36166	1.36135	1.35993
308.15 K, x1 = 0.754	1.37312	1.37017	1.36681	1.36401	1.36256	1.36251	1.36125	1.36096	1.35954
308.15 K, x1 = 0.791	1.37271	1.36974	1.36638	1.36358	1.36215	1.36209	1.36085	1.36054	1.35911
308.15 K, x1 = 0.8296	1.37234	1.36938	1.36604	1.36323	1.36178	1.36173	1.36048	1.36018	1.35877
308.15 K, x1 = 0.8864	1.37212	1.36915	1.3658	1.363	1.36156	1.36151	1.36026	1.35996	1.35855
308.15 K, x1 = 0.8903	1.37167	1.36871	1.36535	1.36256	1.36111	1.36106	1.35981	1.35952	1.3581
308.15 K, x1 = 0.9113	1.37142	1.36847	1.36511	1.36232	1.36088	1.36082	1.35957	1.35928	1.35786
308.15 K, x1 = 0.9547	1.37095	1.36796	1.36465	1.36187	1.36041	1.36036	1.3591	1.3588	1.35741
308.15 K, x1 = 0.973	1.37062	1.36766	1.36431	1.36152	1.36008	1.36002	1.35877	1.35847	1.35707
308.15 K, x1 = 0.9771	1.37048	1.36752	1.36417	1.36139	1.35994	1.35989	1.35864	1.35835	1.35694
308.15 K, x1 = 1	1.37035	1.36739	1.36407	1.36127	1.35975	1.35983	1.35853	1.35823	1.35683
313.15 K, x1 = 0.0277	1.37904	1.37606	1.37269	1.36987	1.3684	–	–	–	–
313.15 K, x1 = 0.0507	1.37898	1.376	1.37262	1.3698	1.36833	–	–	–	–
313.15 K, x1 = 0.051	1.37891	1.37594	1.37256	1.36974	1.36828	–	–	–	–
313.15 K, x1 = 0.0717	1.37855	1.37558	1.37221	1.36939	1.36792	–	–	–	–
313.15 K, x1 = 0.1528	1.37787	1.3749	1.3715	1.36872	1.36724	–	–	–	–
313.15 K, x1 = 0.1553	1.37787	1.3749	1.3715	1.36872	1.36724	–	–	–	–
313.15 K, x1 = 0.1938	1.37761	1.37465	1.37126	1.36846	1.36699	–	–	–	–
313.15 K, x1 = 0.2029	1.37706	1.37411	1.37068	1.36791	1.36645	–	–	–	–
313.15 K, x1 = 0.245	1.37653	1.37358	1.37022	1.36743	1.36596	–	–	–	–
313.15 K, x1 = 0.297	1.37571	1.37276	1.36938	1.36658	1.36512	–	–	–	–
313.15 K, x1 = 0.2973	1.37596	1.37298	1.36959	1.36682	1.36535	–	–	–	–
313.15 K, x1 = 0.3068	1.37567	1.37271	1.36934	1.36655	1.36509	–	–	–	–
313.15 K, x1 = 0.398	1.37428	1.37134	1.36798	1.3652	1.36376	–	–	–	–
313.15 K, x1 = 0.4609	1.37355	1.3706	1.36724	1.36445	1.36302	–	–	–	–
313.15 K, x1 = 0.5434	1.37263	1.36967	1.36633	1.36354	–	–	–	–	–
313.15 K, x1 = 0.6032	1.37187	1.36891	1.36561	1.36281	–	–	–	–	–
313.15 K, x1 = 0.6371	1.37152	1.36856	1.36522	1.36243	–	–	–	–	–
313.15 K, x1 = 0.701	1.37074	1.36779	1.36447	1.36168	–	–	–	–	–
313.15 K, x1 = 0.754	1.3703	1.36737	1.36403	1.36126	–	–	–	–	–
313.15 K, x1 = 0.791	1.36988	1.36694	1.36363	1.36084	–	–	–	–	–
313.15 K, x1 = 0.8296	1.36948	1.36655	1.36322	1.36045	–	–	–	–	–
313.15 K, x1 = 0.8864	1.36937	1.36643	1.36308	1.36035	–	–	–	–	–
313.15 K, x1 = 0.8903	1.3688	1.36585	1.36252	1.35976	–	–	–	–	–
313.15 K, x1 = 0.9113	1.36853	1.3656	1.36228	1.35952	–	–	–	–	–
313.15 K, x1 = 0.9547	1.36805	1.36513	1.3618	1.35904	–	–	–	–	–
313.15 K, x1 = 0.973	1.36771	1.36481	1.36145	1.35868	–	–	–	–	–
313.15 K, x1 = 0.9771	1.36756	1.36465	1.36134	1.35856	–	–	–	–	–
313.15 K, x1 = 1	1.3674	1.36447	1.36119	1.35842	–	–	–	–	–

Source: the NIST ThermoML archive (doi:10.1016/j.fluid.2014.09.014)
